# Test: Pharmacokinetic study in rats (plasma LC-MS/MS) after iv or oral VOC, oral VOC-P188 or oral VOC-β-CD
# Format: in vivo, Sprague Dawley rats
# Details: VOC iv 30 mg/kg, rat plasma, n = 6
# Description: The intravenous injection solution was prepared by dissolving 0.15 g of VOC in 25 ml water containing 3 ml 10% Tween-80 as solubilizer. The oral solution was prepared by dissolving 0.35 g of VOC in 25 ml normal saline containing 3 ml 10% Tween-80 as solubilizer. The VOC-P188 solution was prepared by mixing VOC-P188 5 g in 25 ml water with magnetic stirring apparatus. The VOC-β-CD solution was prepared by mixing VOC-β-CD 3.5 g in 25 ml water with magnetic stirring apparatus.
# Twenty-four male SD rats (220 ~ 250 g) were randomly divided into four groups, 6 in each group. After fasting for 12 h before administration, the rats in group 1 were given VOC by tail vein injection at a dose of 30 mg/Kg, the rats at second group were oral administration of VOC solution, the dosage was 120 mg/Kg based on the mass of VOC. The rats at groups 3 and 4 were given VOC-P188 and VOC-β-CD, respectively.
# Blood samples (0.3 ml) were collected from the eyes at 0.08, 0.17, 0.33, 0.5, 1, 1.5, 2, 4, 6, 8, 12 and 24 h after administration, and they were immediately transferred into a heparinized Eppendorf (EP) tube. The blood samples were then centrifuged at 13,000 r/min for 10 min. The plasma samples were stored at − 80 °C for later analysis.
# The thawed plasma sample (0.1 ml) was transferred to another EP tube and 20 μl of DL, 50 μl of 2% formic acid and 500 μl of methanol were added. The mixture was vortexed for 2 min, and centrifuged at 13000 r/min for 10 min. The supernatant was transferred into a clean EP tube, and evaporated to dryness under a stream of nitrogen at 40 °C. The residue was dissolved in 100 μl of methanol. The supernatant was injected into the HPLC system.
# An HPLC system consisting of a solvent-delivery system LC-30 AD, an autosampler SIL-30 AC, a column oven CTO-30 AC, a solvent degasser DGU-20A3, and a controller CBM-20A from […] was used in the study. Separation was conducted using a Shim-pack GIST C18-AQ HP column (2.1 mm × 100 mm, 3 μm). The column oven was maintained at 35 °C. The mobile phase was 0.1% formic acid in water as mobile phase A and acetonitrile as mobile phase B. The linear gradient elution program was set according to preliminary tests: 45–60% B, 0–2 min; 60–65% B, 2–6 min; 65–95% B, 6–7 min; 95–45% B, 7–9 min and 45% B, 9–10 min, with the flow rate kept at 0.3 ml/min. The injection volume was set at 2 μl.
# The MS analysis was performed on a 4500 QTRAP™ system from Applied Biosystems (AB Sciex) equipped with Turbo V sources and Turbo Ion Spray™ (TIS) interface. Electrospray ionization was performed in positive mode. Ion source: electrospray ion source (ESI source); detection method: multiple reaction monitoring (MRM); ion source temperature: 500 °C; desolvent gas temperature: 550 °C; desolvent gas flow rate: 800 l/h. The detection ion pair, retention time, declustering voltage and collision energy of each index component and internal standard were shown in Table 2.
# The plasma SA, NBP, NOL, ZL and BP concentrations were evaluated using the equation from the standard curves that were run with each batch of samples. The plasma concentration-time data were analyzed with the Drug and Statistics 2.0 software package to determine the pharmacokinetic parameters. The observed Cmax value was obtained from the observed data and the observed AUC0 → t value was calculated using the trapezoidal rule. The absolute bioavailability of VOC and the relative bioavailability of VOC-P188 and VOC-β-CD were calculated, the formula for calculating absolute bioavailability (F1) and relative bioavailability (F2): F1=AUCpo×Div/AUCiv×Dpo×100% […]
# Where AUC is the area under the temporal curve of blood drug concentration (μg/l*h), D is administration dosage (mg/kg); the subscripts iv and po are injection and oral administration, respectively; the subscript R is reference drug (VOC); the subscript T is solid dispersion or inclusion compound.
row,Compound,t1/2α [h]
1,"CCCCC1OC(=O)C2=C1CCC=C2 (stereo not shown) [SA, senkyunolide A]",0.09 ± 0.05
2,"CCCC[C@@H]1OC(=O)C2=CCCC[C@H]21 [NOL, Neocnidilide]",0.04 ± 0.04

# Same assay, conditions: VOC po 120 mg/kg, rat plasma, n = 6
row,Compound,t1/2α [h]
1,"CCCCC1OC(=O)C2=C1CCC=C2 (stereo not shown) [SA, senkyunolide A]",1.31 ± 1.58
2,"CCCC[C@@H]1OC(=O)C2=CCCC[C@H]21 [NOL, Neocnidilide]",0.46 ± 0.67

# Same assay, conditions: VOC-P188 solid dispersion po vs VOC po, rats
row,Compound,F2 (relative bioavailability) [%]
1,"CCCCC1OC(=O)C2=C1CCC=C2 (stereo not shown) [SA, senkyunolide A]",185.82
2,"CCCC[C@@H]1OC(=O)C2=CCCC[C@H]21 [NOL, Neocnidilide]",258.18

# Same assay, conditions: VOC-P188 solid dispersion po, rat plasma, n = 6
row,Compound,t1/2α
1,"CCCCC1OC(=O)C2=C1CCC=C2 (stereo not shown) [SA, senkyunolide A]",1.50 ± 1.59 h
2,"CCCC[C@@H]1OC(=O)C2=CCCC[C@H]21 [NOL, Neocnidilide]",4.21 ± 4.29^* h

# Same assay, conditions: VOC-β-CD inclusion compound po vs VOC po, rats
row,Compound,F2 (relative bioavailability) [%]
1,"CCCCC1OC(=O)C2=C1CCC=C2 (stereo not shown) [SA, senkyunolide A]",138.69
2,"CCCC[C@@H]1OC(=O)C2=CCCC[C@H]21 [NOL, Neocnidilide]",218.01

# Same assay, conditions: VOC-β-CD inclusion compound po, rat plasma, n = 6
row,Compound,t1/2α [h]
1,"CCCCC1OC(=O)C2=C1CCC=C2 (stereo not shown) [SA, senkyunolide A]",2.34 ± 1.24
2,"CCCC[C@@H]1OC(=O)C2=CCCC[C@H]21 [NOL, Neocnidilide]",3.21 ± 2.44

# Same assay, conditions: male, Sprague-Dawley, rat, plasma, iv, 30 mg/kg, VOC iv 30 mg/kg, rat plasma, n = 6
row,Compound,AUC(0-t) [ng·h/mL]
1,"CCCCC1OC(=O)C2=C1CCC=C2 (stereo not shown) [SA, senkyunolide A]",1370 ± 315
2,"CCCC[C@@H]1OC(=O)C2=CCCC[C@H]21 [NOL, Neocnidilide]",505 ± 152

# Same assay, conditions: male, Sprague-Dawley, rat, plasma, iv, 30 mg/kg, VOC iv 30 mg/kg, rat plasma, n = 6; read-out: MRT0-t
row,Compound,MRT last [h]
1,"CCCCC1OC(=O)C2=C1CCC=C2 (stereo not shown) [SA, senkyunolide A]",0.72 ± 0.08
2,"CCCC[C@@H]1OC(=O)C2=CCCC[C@H]21 [NOL, Neocnidilide]",0.79 ± 0.17

# Same assay, conditions: male, Sprague-Dawley, rat, plasma, iv, 30 mg/kg, VOC iv 30 mg/kg, rat plasma, n = 6; read-out: Tmax
row,Compound,Tmax [h]
1,"CCCCC1OC(=O)C2=C1CCC=C2 (stereo not shown) [SA, senkyunolide A]",0.083
2,"CCCC[C@@H]1OC(=O)C2=CCCC[C@H]21 [NOL, Neocnidilide]",0.083

# Same assay, conditions: male, Sprague-Dawley, rat, plasma, iv, 30 mg/kg, VOC iv 30 mg/kg, rat plasma, n = 6; read-out: t1/2β (converted)
row,Compound,half-life [h]
1,"CCCCC1OC(=O)C2=C1CCC=C2 (stereo not shown) [SA, senkyunolide A]",0.78 ± 0.66
2,"CCCC[C@@H]1OC(=O)C2=CCCC[C@H]21 [NOL, Neocnidilide]",0.3 ± 0.11

# Same assay, conditions: male, Sprague-Dawley, rat, plasma, iv, 30 mg/kg, VOC iv (tail vein) 30 mg/kg, rat plasma, n = 6
row,Compound,Cmax [ng/mL]
1,"CCCCC1OC(=O)C2=C1CCC=C2 (stereo not shown) [SA, senkyunolide A]",3430 ± 557
2,"CCCC[C@@H]1OC(=O)C2=CCCC[C@H]21 [NOL, Neocnidilide]",1380 ± 335

# Same assay, conditions: male, Sprague-Dawley, rat, plasma, po, 120 mg/kg, VOC po 120 mg/kg, rat plasma, n = 6
Compound,AUC(0-t) [ng·h/mL],Cmax [ng/mL]
"CCCCC1OC(=O)C2=C1CCC=C2 (stereo not shown) [SA, senkyunolide A]",1260 ± 274,631 ± 310
"CCCC[C@@H]1OC(=O)C2=CCCC[C@H]21 [NOL, Neocnidilide]",442 ± 45.2,223 ± 71.3

# Same assay, conditions: male, Sprague-Dawley, rat, plasma, po, 120 mg/kg, VOC po 120 mg/kg, rat plasma, n = 6; read-out: MRT0-t
row,Compound,MRT last [h]
1,"CCCCC1OC(=O)C2=C1CCC=C2 (stereo not shown) [SA, senkyunolide A]",4.19 ± 0.49
2,"CCCC[C@@H]1OC(=O)C2=CCCC[C@H]21 [NOL, Neocnidilide]",3.42 ± 0.57

# Same assay, conditions: male, Sprague-Dawley, rat, plasma, po, 120 mg/kg, VOC po 120 mg/kg, rat plasma, n = 6; read-out: Tmax
row,Compound,Tmax [h]
1,"CCCCC1OC(=O)C2=C1CCC=C2 (stereo not shown) [SA, senkyunolide A]",0.19 ± 0.1
2,"CCCC[C@@H]1OC(=O)C2=CCCC[C@H]21 [NOL, Neocnidilide]",0.18 ± 0.12

# Same assay, conditions: male, Sprague-Dawley, rat, plasma, po, 120 mg/kg, VOC po 120 mg/kg, rat plasma, n = 6; read-out: t1/2β (converted)
row,Compound,half-life [h]
1,"CCCCC1OC(=O)C2=C1CCC=C2 (stereo not shown) [SA, senkyunolide A]",3.79 ± 1.4
2,"CCCC[C@@H]1OC(=O)C2=CCCC[C@H]21 [NOL, Neocnidilide]",3.1 ± 2.18

# Same assay, conditions: male, Sprague-Dawley, rat, plasma, po, 120 mg/kg, VOC po vs VOC iv, rats; read-out: F1 (absolute bioavailability)
row,Compound,bioavailability [%]
1,"CCCCC1OC(=O)C2=C1CCC=C2 (stereo not shown) [SA, senkyunolide A]",< 25
2,"CCCC[C@@H]1OC(=O)C2=CCCC[C@H]21 [NOL, Neocnidilide]",< 25

# Same assay, conditions: male, Sprague-Dawley, rat, plasma, po, VOC-P188 and VOC-β-CD po, rats; read-out: bioavailability in the two preparations
row,Compound,bioavailability [%]
1,"CCCCC1OC(=O)C2=C1CCC=C2 (stereo not shown) [SA, senkyunolide A]",< 50
2,"CCCC[C@@H]1OC(=O)C2=CCCC[C@H]21 [NOL, Neocnidilide]",< 50

# Same assay, conditions: male, Sprague-Dawley, rat, plasma, po, VOC-P188 solid dispersion po, rat plasma, n = 6
Compound,AUC(0-t) [ng·h/mL],Cmax [ng/mL]
"CCCCC1OC(=O)C2=C1CCC=C2 (stereo not shown) [SA, senkyunolide A]",2360 ± 351,701 ± 349
"CCCC[C@@H]1OC(=O)C2=CCCC[C@H]21 [NOL, Neocnidilide]",1140 ± 63.9,244 ± 131

# Same assay, conditions: male, Sprague-Dawley, rat, plasma, po, VOC-P188 solid dispersion po, rat plasma, n = 6; read-out: MRT0-t
row,Compound,MRT last [h]
1,"CCCCC1OC(=O)C2=C1CCC=C2 (stereo not shown) [SA, senkyunolide A]",6.45 ± 0.96
2,"CCCC[C@@H]1OC(=O)C2=CCCC[C@H]21 [NOL, Neocnidilide]",7.61 ± 0.57

# Same assay, conditions: male, Sprague-Dawley, rat, plasma, po, VOC-P188 solid dispersion po, rat plasma, n = 6; read-out: Tmax
row,Compound,Tmax [h]
1,"CCCCC1OC(=O)C2=C1CCC=C2 (stereo not shown) [SA, senkyunolide A]",0.2 ± 0.16
2,"CCCC[C@@H]1OC(=O)C2=CCCC[C@H]21 [NOL, Neocnidilide]",0.42 ± 0.45

# Same assay, conditions: male, Sprague-Dawley, rat, plasma, po, VOC-P188 solid dispersion po, rat plasma, n = 6; read-out: t1/2β (converted)
row,Compound,half-life [h]
1,"CCCCC1OC(=O)C2=C1CCC=C2 (stereo not shown) [SA, senkyunolide A]",7.24 ± 2.57
2,"CCCC[C@@H]1OC(=O)C2=CCCC[C@H]21 [NOL, Neocnidilide]",8.84 ± 1.84

# Same assay, conditions: male, Sprague-Dawley, rat, plasma, po, VOC-β-CD inclusion compound po, rat plasma, n = 6
Compound,AUC(0-t) [ng·h/mL],Cmax [ng/mL]
"CCCCC1OC(=O)C2=C1CCC=C2 (stereo not shown) [SA, senkyunolide A]",1830 ± 532,399 ± 68.3
"CCCC[C@@H]1OC(=O)C2=CCCC[C@H]21 [NOL, Neocnidilide]",945 ± 85,134 ± 24.3

# Same assay, conditions: male, Sprague-Dawley, rat, plasma, po, VOC-β-CD inclusion compound po, rat plasma, n = 6; read-out: MRT0-t
row,Compound,MRT last [h]
1,"CCCCC1OC(=O)C2=C1CCC=C2 (stereo not shown) [SA, senkyunolide A]",6.22 ± 1.51
2,"CCCC[C@@H]1OC(=O)C2=CCCC[C@H]21 [NOL, Neocnidilide]",8.17 ± 0.55

# Same assay, conditions: male, Sprague-Dawley, rat, plasma, po, VOC-β-CD inclusion compound po, rat plasma, n = 6; read-out: Tmax
row,Compound,Tmax [h]
1,"CCCCC1OC(=O)C2=C1CCC=C2 (stereo not shown) [SA, senkyunolide A]",0.5 ± 0.26
2,"CCCC[C@@H]1OC(=O)C2=CCCC[C@H]21 [NOL, Neocnidilide]",0.67 ± 0.26

# Same assay, conditions: male, Sprague-Dawley, rat, plasma, po, VOC-β-CD inclusion compound po, rat plasma, n = 6; read-out: t1/2β (converted)
row,Compound,half-life [h]
1,"CCCCC1OC(=O)C2=C1CCC=C2 (stereo not shown) [SA, senkyunolide A]",2.98 ± 0.57
2,"CCCC[C@@H]1OC(=O)C2=CCCC[C@H]21 [NOL, Neocnidilide]",9.77 ± 2.71

# Test: Stability test of VOC-P188 and VOC-β-CD (temperature, illumination)
# Format: physicochemical
# Details: in VOC-P188, 60 °C for 10 days
row,Compound,content decreased by [%]
1,"CCCCC1OC(=O)C2=C1CCC=C2 (stereo not shown) [SA, senkyunolide A]",15.8

# Same assay, conditions: in VOC-β-CD, 60 °C for 10 days
row,Compound,content decreased by [%]
1,"CCCCC1OC(=O)C2=C1CCC=C2 (stereo not shown) [SA, senkyunolide A]",9.0
